Experimental data reported in patent publication US12215460B2, “Methods of microbial control” (Clean Chemistry, Inc., priority 2015, dated 2025).
Read-outs that look alike come from different tables or passages of the source. Each block holds one compound with its values, some of them ahead of it.

Key:
[1] = Bleaching of Kraft pulp, hand sheet tests
[2] = TOX formation tests in pulp bleaching
Procedure: […]. The pulp slurry was put into a 1 L glass beaker in a heated water bath. The beakers were fitted with liquid-tight covers to minimize evaporative losses of water and oxidants. After the pulp slurry was heated the oxidant solution and additional salt water was added to make a final composition of about 855 g water, 45.0 g of air-dry pulp, 8.55 g NaCl and the oxidant. The oxidant was mixed into the pulp slurry thoroughly with a stainless steel spatula for several minutes and then mixed periodically throughout the 2 hour bleaching period. The pH of the slurry was left at the natural pH created by each oxidant in the presence of the pulp.
The amount of oxidant used in each test was enough to partially bleach the amount of lignin present so that the oxidant was the limiting reagent. When peracetate oxidant was combined with Kraft pulp the evolution of some gas was observed accompanied by rapid bleaching that was clearly visible within the first few minutes. […]. After 2 hours at 50° C. the pulp slurries were vacuum filtered through a Buchner funnel over a medium porosity filter paper. There was no residual oxidant present in the filtrates. The four filtrate solutions recovered were put into amber glass bottles and preserved with sulfuric acid for total organic halide analyses, which were conducted by a third party laboratory.

microbes = experiment: Microbial control in water at slightly alkaline pH, oxidant comparison; assay type: cell-based
Description: In some embodiments, microbial control in water at slightly alkaline pH was compared between peracetate oxidant, […] bleach, peracetic acid and […] dioxide. Alkaline pH is encountered in a variety of applications where microbial control and sanitization is needed, including pulp and paper processing, cooling towers, water treatment and chill tanks in poultry processing. […].

ORP of oxidants at pH 7 = assay type: physicochemical; settings: 29 mM
[3] = flowback water, 22 C, pH 6.5; initial 80 mg/L (peracetate as PAA; PAA with 112 mg/L H2O2)
[4] = Thermal activation in clean water at pH 8.5 and 50 C; assay type: physicochemical; settings: distilled water
[5] = Entry 2, bleach time 30 min, 1.13 g/L PAA equiv., initial pH 8.2
[6] = Entry 8, 30 min, 4.0 g/L, initial pH 8.0
[7] = Entry 9, 30 min, 4.0 g/L, initial pH 8.9

Compound: [O][Cl+][O-] [chlorine dioxide]
Final ORP [1, 5]: 896 mV vs SHE
Final pH [1, 5]: 6.4
Normalized TOX [2]: 17.7 mg/L per 1000 mg/L oxidant
TOX [2]: 17.7 mg/L
performance as antimicrobial disinfectant (microbes): performed well

ORP (ORP of oxidants at pH 7): over 1.1 V (vs SHE)
Compound: OCl [hypochlorous acid]

Compound: sodium peracetate [peracetate oxidant]
total organic halides (TOX) relative to chlorine dioxide [2]: about ten times less

Compound: CC(=O)OO [peracetic acid]
Final ORP ([1]; Entry 7, 30 min, 4.0 g/L, initial pH 7.0): 502 mV vs SHE
Final pH ([1]; Entry 7, 30 min, 4.0 g/L, initial pH 7.0, stock 11.4% PAA and 15.6% H2O2): 7.0
Final ORP [1, 6]: 406 mV vs SHE
Final pH [1, 6]: 8.0
Final ORP [1, 7]: 253 mV vs SHE
Final pH [1, 7]: 8.8
Normalized TOX ([2]; Kraft pulp 5% consistency, 1.0% NaCl, 50 C, 2 hours): 4.5 mg/L per 1000 mg/L oxidant
TOX ([2]; Kraft pulp 5% consistency, 1.0% NaCl, 50 C, 2 hours, initial 4000 mg/L peracetate (as PAA equivalents), 4000 PAA + 5400 H2O2, 1000 ClO2, blank 0.68): 17.8 mg/L
performance as antimicrobial disinfectant (microbes): lowest performance
TOX [3]: BDL (BDL = below detection limit, less than 0.05 mg/L)
time peracetic acid and hydrogen peroxide concentrations were stable [4]: about 90 minutes
ORP ([4]; constant during the test): around 280 mV vs SHE

ORP (ORP of oxidants at pH 7): about 0.5 V (vs SHE)
Compound: OO [hydrogen peroxide]
